# Literature values, collected in paper PMC7998273, “Zein Nanoparticles Improve the Oral Bioavailability of Curcumin in Wistar Rats” (Pharmaceutics, 2021).
# Design: method as in PMID 17400527
# Conditions: orally administered
compound,measurement,value
"COc1cc(/C=C/C(=O)CC(=O)/C=C/c2ccc(O)c(OC)c2)ccc1O [CC, curcumin]",Oral bioavailability,ca. 1%
